The values that follow come from article PMC12559310, “Tumor-targeted top1 inhibitor delivery with optimized parp inhibition in advanced solid tumors: a phase i trial of gapped scheduling” (Nature Communications, 2025).

Each structure is given as a SMILES string. Read-outs that look alike come from different tables or passages of the source.

Data set [1] relates to patients with advanced solid tumors. Briefly: Phase I dose escalation (3 + 3 design): DLTs and MTD/RP2D of CRLX101 plus olaparib. It is filed as in vivo, human. To be noted: Olaparib 250 tab bid d3-13, 17-26 combined with CRLX101 12 mg/m2; % of single-agent MTD; Current study. From the text:
Olaparib tablets were given at escalating doses across cohorts (as shown in Fig. 1), administered twice daily on days 3–13 and 17–26 of the treatment cycle.
A standard 3 + 3 design was used for dose escalation. […] DLTs were based on toxicities observed during the first cycle. […] Study treatment was discontinued if there was a > 3-week delay in reinstitution of treatment due to drug-related toxicity during a cycle. Dose reductions were allowed for toxicities. A maximum of two dose reductions were allowed. Dose re-escalation was not allowed.

Data set [2] can be described thus: Olaparib peak plasma concentration (2 h post-oral administration). In kind it is in vivo, human. On the procedure:
Approximately 4 mL of blood was collected into a sodium heparin tube (BD Biosciences), immediately processed into plasma before storage in cryovials at − 80 °C. […] Total CPT, polymer-unconjugated CPT, and olaparib plasma concentrations were measured using previously published assays[53],[54]. Polymer-conjugated CPT plasma concentrations were obtained via subtracting the polymer-unconjugated concentration from the total CPT concentration.
First dose pharmacokinetic parameters were calculated using noncompartmental methods (Phoenix WinNonlin 8.0, Certara Pharsight Corp, Cary, NC). Any plasma concentration measured below the LLOQ was excluded from analyses. The maximum plasma concentration (CMAX) and time to CMAX (TMAX) were recorded as observed values. The area under the plasma concentration vs time curve to the last observed time point (AUCLAST) was calculated using the Linear Up Log Down trapezoidal rule. The elimination rate (kEL) was calculated as the slope of the log-transformed concentrations vs terminal time points. AUC extrapolated to time infinity (AUCINF) was calculated as AUCLAST + CLAST/kEL, where CLAST is the concentration at the last observed time point. Half-life (t1/2) was calculated as ln2/kEL. Apparent oral clearance (CL/F) was calculated as dose/AUCINF; volume of distribution at steady-state (Vss) was calculated via the product of mean residence time extrapolated to infinity (MRTINF) and […]. Pharmacokinetic parameters were calculated for each individual and summarized using the arithmetic mean ± standard deviation (SD).

For a further data set, the system named is SCLC cell lines. Also noted: method as in protocol [5]. The conditions noted are these: pre-clinical models of SCLC; ref protocol [5]; cited from earlier work.
For data set [3], the system named is CYP3A4. The conditions noted are these: in vitro; cited from earlier work.
Data set [4] has as its system CYP3A4. The conditions noted are these: in vitro; cited from earlier work. The source holds these as a separate data set.
A further data set deals with CYP1A2. To be noted: in vitro; cited from earlier work.
In another data set the test system is CYP2B6. To be noted: in vitro; cited from earlier work.
Data set [5] deals with CYP3A4. The conditions noted are these: in vitro; cited from earlier work. The source holds these as a separate data set.
The subject of another data set is P-gp. To be noted: in vitro; cited from earlier work.
For another data set, the system named is OATP1B1. To be noted: in vitro; cited from earlier work.
A further data set concerns OCT1. The conditions noted are these: in vitro; cited from earlier work.
In the next data set the test system is OCT2. The conditions noted are these: in vitro; cited from earlier work.
For another data set, the system named is OAT3. The conditions noted are these: in vitro; cited from earlier work.
Another data set has as its system MATE1. To be noted: in vitro; cited from earlier work.
In another data set the test system is MATE2K. The conditions noted are these: in vitro; cited from earlier work.
For another data set, the system named is BRCP. The conditions noted are these: in vitro; cited from earlier work.
For the next data set, the system named is anaesthetized dog. Also noted: method as in olaparib Investigator’s Brochure. To be noted: at the doses studied, ref olaparib Investigator’s Brochure; cited from earlier work.
The subject of another data set is rat. Also noted: method as in olaparib Investigator’s Brochure. To be noted: rat Irwin test, at the doses studied; ref olaparib Investigator’s Brochure; cited from earlier work.
In the next data set the test system is target organ of toxicity. More on the design: method as in olaparib Investigator’s Brochure. To be noted: toxicology studies; ref olaparib Investigator’s Brochure; cited from earlier work.
In a further data set the test system is patients. To be noted: tablet BID; protocol rationale; cited from earlier work.
In data set [6] the test system is patients with solid tumors. The conditions noted are these: Inv New Drugs, cited from earlier work.
The subject of another data set is DNA damage. Also noted: method as in earlier work. The conditions noted are these: preclinical studies, transient, declining thereafter; cited from earlier work.

For the molecule `O=C(c1cc(Cc2n[nH]c(=O)c3ccccc23)ccc1F)N1CCN(C(=O)C2CC2)CC1` [olaparib], the “PARPi % of MTD” value in [1] is 83%; in data set [6] (Olaparib 50 mg bid d1-5 with Irinotecan 125 mg/m2 q2w, ref Chen, 2016), 12%; in [6] (Olaparib 50 mg qd d1-21 with Irinotecan 200 mg/m2 q3w, ref Chen, 2016), 6%; in data set [6] (Olaparib 100 mg bid d1-21 with Topotecan 1 mg/m2/d1-3, ref Samol, 2012) it was 25%. In [2] (100-300 mg, 2 hours post-dose), the “dose dependence of peak concentrations” value is listed as “increased proportionally with the dose”. Also, the CMAX in data set [2] (Olaparib dose 100 mg, N 2, 2 h post-dose, mean ± SD) was 2843.1 ± 947.62 ng/mL; in [2] (Olaparib dose 150 mg, N 5, 2 h post-dose, mean ± SD), 2359.8 ± 1548.0 ng/mL; in data set [2] (Olaparib dose 200 mg, N 3, 2 h post-dose, mean ± SD) it was 4496.7 ± 2375.2 ng/mL; in data set [2] (Olaparib dose 300 mg, N 6, 2 h post-dose, mean ± SD), 5594.6 ± 4132.4 ng/mL. The Cmax (as a rule, the peak of the concentration-time curve) at 2 h in data set [2] (human, plasma, oral, Olaparib dose 250 mg, N 7, 2 h post-dose, mean ± SD) amounted to 6340 ± 4870 ng/mL. Also, in the data set with SCLC cell lines, the single agent activity result is on record as “striking single agent activity in a majority of SCLC cell lines tested”. Besides, the CYP3A4 inhibition entry in the data set on CYP3A4 [3] is “inhibits CYP3A4 in vitro”. The “principal enzyme forming the 3 main metabolites” value in the data set on CYP3A4 [4] was “CYP3A4”. For the same molecule, the CYP1A2 induction result in the data set on CYP1A2 is reported as “Induction”. In the data set on CYP2B6, the CYP2B6 induction entry is “Induction”. Further, the CYP3A4 induction entry with CYP3A4 [5] is “Induction”. For the same molecule, in the data set on P-gp, the P-gp inhibition entry is recorded as “inhibitor”. For the same molecule, in the data set on OATP1B1, the OATP1B1 inhibition result is reported as “inhibitor”. Also, the OCT1 inhibition entry in the data set on OCT1 is reported as “inhibitor”. For the same molecule, the OCT2 inhibition result with OCT2 is on record as “inhibitor”. In addition, the OAT3 inhibition result in the data set with OAT3 is given as “inhibitor”. For the same molecule, in the data set on MATE1, the MATE1 inhibition result is on record as “inhibitor”. Also, the MATE2K inhibition entry in the data set on MATE2K is recorded as “inhibitor”. The BRCP inhibition entry in the data set on BRCP is given as “weak inhibitor”. Also, in the data set with anaesthetized dog, the “effects on cardiovascular or respiratory parameters” value is “no noticeable”. The “behavioural, autonomic or motor effects” value in the data set on rat is recorded as “no noticeable”. In addition, the “target organ of toxicity” value in the data set on target organ of toxicity was “bone marrow”. For the same molecule, the “single-agent maximum tolerated dose (MTD)” value in the data set on patients is 300 mg.

`CC[C@@]1(O)C(=O)OCc2c1cc1n(c2=O)Cc2cc3ccccc3nc2-1` [camptothecin, 20(S)-camptothecin]: the “time of peak of camptothecin-induced DNA damage” value in the data set with DNA damage was 24 to 48 h.
